Test results published in patent publication US6713449B1, “E2F activity inhibitory compounds” (Kyowa Hakko Kogyo Co., Ltd., priority 1996, dated 2004).
Where a SMILES comes first, the peptide text is derived from it. The star is where a group is joined. Lauroyl = CCCCCCCCCCCC(=O)*

Assays:
[1] = molecular target: T1, GST-E2F-1 and GST-DP-1 binding to 32P-labeled E2F probe (Homo sapiens, UniProt Q01094+Q14186); assay: Assay of E2F-DNA binding-inhibiting activity by gel shift assay; settings: 30° C. 30 minutes
T1 construct: a part of human E2F-1 (101-st to 227-th amino acid residues from the N terminus) and GST; a part of the human DP-1 (84-th to 241-th amino acid residues from the N terminus) with GST; made in house; host or cells: Escherichia coli XL1-blue
Procedure: Assay of E2F-DNA Binding-inhibiting Activity by Gel Shift Assay (1-1) Expression of a Fusion Protein of E2F-1 and DP-1 in Escherichia Coli
So as to assay the activity to inhibit E2F-DNA binding, a fusion protein of glutathione-S-transferase (abbreviated as GST hereinbelow) with the genes of human E2F-1 [Cell, 70, 337 (1992); Cell, 70, 351 (1992)] and human DP-1 [Genes Dev., 7, 1850 (1993)] was prepared.
(1-2) Gel Shift Experiments by Using GST-E2F-1 and GST-DP-1
The following two oligonucleotides including the E2F binding sequence, which are complementary sequences to each other;
were added individually at a concentration of 10 μM into a solution comprising 10 mM MgCl2, 5 mM DTT and 50 mM Tris-HCl(pH 7.5), for treatment at 75° C. for 10 minutes, and the resulting solutions were left to stand at ambient temperature while gradually lowering the temperature for annealing. The resulting double-stranded DNA solution (10 μl) was kept in a reaction solution (30 μL) [50 mM Tris-HCl buffer(pH 7.5) containing 10 mM MgCl2, 5 mM dithiothreitol (DTT) 10 units of T4 polynucleotide kinase (manufactured by TaKaRa), 0.2 mCi [γ-^32P]ATP (7,000 Ci/mmol ATP, manufactured by Amersham Co.)] at 37° C. for 60 minutes, to label the 5′ terminus. By adding 0.5 M EDTA (2 μl) to the reaction solution, the reaction was terminated, and thereafter, unreactive [γ-^32P]ATP was removed by using a NickColumn G-50 (manufactured by Pharmacia Co.), to recover E2F probe. Into 20 mM HEPES buffer(pH 7.4)(20 μl) containing 40 mM KCl, 1 mM MgCl2, 0.1 mM EDTA, 0.1% Nonidet P-40, and 1 mM DTT were added 0.1 pmol of ^32P-labeled E2F probe, 100 ng of GST-E2F-1, 100 ng of GST-DP-1, 2 μg of calf thymus DNA and 0 to a 100 μM test compound, for reaction at 30° C. for 30 minutes. After the reaction, the reaction solution was electrophoresed by using 0.5×TBE [2.5 mM Tris-borate buffer, pH 8.3, 0.1 mM EDTA] as an electrophoresis buffer in 4% polyacrylamide gel. GST-E2F-1 and GST-DP-1 proteins were bound to the labeled E2F probe, so that the mobility thereof was reduced. Accordingly, the proteins were detected as upper bands. After electrophoresis, the gel was dried to assay the radioactivity in bands shifting upward, by using an image analyzer Type BAS2000 (manufactured by Fuji Film Co.). The radioactivity in each lane was assayed, to calculate the inhibition ratio, on the basis of the radioactivity of a sample with no test compound contained in the reaction system, according to the following equation.
A: radioactivity in a band shifted in the absence of any test compound
B: radioactivity in a band shifted in the presence of a test compound.

[2] = tested on: E2F dependent transcription (luciferase reporter cell strain E2F-1/Saos-2-1); assay: Assay of activity suppressing E2F responsive transcription (2): reporter cell strain E2F-1/Saos-2-1, Lipofect AMINE; type: cell-based, human; settings: luciferase activity corrected with protein concentration
From the text: Assay of Activity Suppressing E2F Responsive Transcription (2)
Into the XhoI- and HindIII sites of luciferase reporter vector pluc2 with neomycin (G418) resistant gene [Eur. J. Haematol., 52, 73 (1994)] were inserted an SphI-HindIII fragment composed of the 200 base pairs in the core promoter region of the SV40 initial gene 128-0/5243-5171, base number according to “DNA Tumor Viruses, Molecular Biology of Tumor Viruses, 2nd Ed., Part 2 Revised, Edited by J. Tooze, Cold Spring Harbor Laboratory Press, 1982” and a fragment produced by annealing the following two synthetic oligonucleotides;
and then inserting the annealed product into the XhoI and Asp718 sites of the constructed luciferase vector pSE01uc2, reporter plasmid pE2FII-1luc2 was constructed.
By the following method, the plasmid was introduced into a human osteosarcoma-derived cell strain Saos-2 (ATCC HTB85), and the resulting cell was defined as E2F responsive reporter cell. 2×10^6 cells of the Saos-2 cultured in the presence of 5% CO2 in the medium A at 37° C. were suspended in K-PBS buffer (50 μl) [137 mM KCl, 2.7 mM NaCl, 8.1 mM Na2HPO4, 1.5 mM KH2PO4, 4 mM MgCl2], followed by addition of 1 μg/μl plasmid pE2FII-1 luc2 (4 μg) prepared above. […]

[3] = tested on: human osteosarcoma-derived cell line Saos-2; assay: Assay of growth inhibiting activity on Saos-2 cell (test compound introduced by electric pulse); type: cell-based; settings: 100 μM, 40 hours culture, viable cell number
Procedure: Assay of Growth Inhibiting Activity on Saos-2 cell
1×10^6 cells of a human osteosarcoma-derived cell line Saos-2 (ATCC HTB85) cultured in an RPMI 1640 culture medium containing 10% fetal calf serum (manufactured by Nissui Co.; referred to as medium A hereinbelow) in the presence of 5% CO2 at 37° C. were suspended in 50 μl of K-PBS buffer [137 mM KCl, 2.7 mM NaCl, 8.1 mM Na2HPO4, 1.5 mM KH2PO4, and 4 mM MgCl2], followed by addition of a test compound appropriately diluted with K-PBS to a final concentration of 100 μM. The suspension was transferred on a 0.2-cm width cuvette (manufactured by BIO-RAD Laboratories) for loading an electric pulse (conditions: an electric voltage=3 kV/cm, a pulse width=100 μ seconds, a pulse interval=one second, a pulse number=two) by using a Shimadzu cell fusion system SSH-1 [manufactured by Shimadzu Corporation]. After leaving the cuvette to stand for 10 minutes, the cells were recovered and suspended in 3 ml of the medium A, for inoculation on a cell culture dish of a 60-mm diameter(manufactured by Iwaki Glass Co.). […] Based on the cell number with no test compound under load of an electric pulse, the inhibition ratio was calculated by the following equation. […]

[4] = tested on: E2F responsive transcription (human cdc2 promoter-luciferase reporter pcdc21uc2); assay: Assay of activity suppressing E2F responsive transcription (1): human cdc2 promoter luciferase reporter in Saos-2; type: cell-based; settings: 100 μM, electroporation, 40 hours, luciferase activity corrected with protein concentration
Procedure: Assay of Activity Suppressing E2F Responsive Transcription (1)
The promoter sequence of human cdc2 gene [EMBO J., 11, 1797 (1992)], which has been reported to have an endogenous E2F responsive sequence and to effect an E2F dependent transcription, was bound to the upstream of the firefly luciferase gene, which was designated as reporter gene.
Two micrograms (2 μg) of the plasmid pcdc21uc2 thus prepared were introduced, together with a test compound (100 μM), into 1×10^6 cells of Saos-2 by electroporation, in the same manner as in the Test Example 2. As in the Test Example 2, the resulting cells were inoculated into a cell culture dish of a 60-mm diameter for culturing in the presence of 5% CO2 at 37° C. for 40 hours, and thereafter, the cells were peeled off and recovered by centrifugation. […] The luciferase activity was assayed as follows; 300 μl of a substrate solution [25 mM glycylglycine buffer(pH 7.8), 15 mM MgSO4, 5 mM ATP, and 0.33 mM luciferin] was automatically injected into a luminometer LB953 (manufactured by Beltold Co.), to assay the luminescence for 10 seconds, which was defined as luciferase activity. […] Based on the luciferase activity (after correction with protein concentration) of a sample with no test compound contained in the reaction system, the inhibition ratio was calculated by the following equation. […]

T1 sequence (Q01094 101-227): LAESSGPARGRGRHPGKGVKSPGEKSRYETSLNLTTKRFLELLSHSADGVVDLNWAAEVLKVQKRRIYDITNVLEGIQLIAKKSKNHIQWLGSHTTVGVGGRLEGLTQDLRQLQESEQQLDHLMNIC
T1 sequence (Q14186 84-241): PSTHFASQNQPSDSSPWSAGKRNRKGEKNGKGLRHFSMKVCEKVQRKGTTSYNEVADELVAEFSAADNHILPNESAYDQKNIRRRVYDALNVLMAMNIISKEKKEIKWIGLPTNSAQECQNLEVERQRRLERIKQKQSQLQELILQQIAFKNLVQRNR

Molecule	Inhibition ratio (%) ([1]; 25 μM test compound)	Inhibition ratio (%) ([1]; 100 μM test compound)	Inhibition ratio (%) ([2]; 1 μM)	Inhibition ratio (%) ([2]; 10 μM)	Inhibition ratio (%) ([1]; 1 μM test compound)	Inhibition ratio (%) ([1]; 10 μM test compound)	Inhibition ratio (%) [3]	Inhibition ratio (%) [4]
CCCCCCCCCCCC(=O)N[C@@H](CC(N)=O)C(=O)N[C@@H](CCC(=O)O)C(=O)N[C@@H](CO)C(=O)N[C@@H](C)C(=O)N[C@@H](Cc1ccc(O)cc1)C(=O)N[C@@H](CC(=O)O)C(=O)N[C@@H](CCC(N)=O)C(=O)N[C@@H](CCCCN)C(=O)N[C@@H](CC(N)=O)C(=O)N[C@H](C(=O)N[C@@H](CCCNC(=N)N)C(=O)N[C@@H](CCCNC(=N)N)C(=O)N[C@@H](CCCNC(=N)N)C(=O)N[C@H](C(=O)N[C@@H](Cc1ccc(O)cc1)C(=O)N[C@@H](CC(=O)O)C(=O)N[C@@H](C)C(=O)N[C@@H](CC(C)C)C(=O)N[C@@H](CC(N)=O)C(=O)N[C@H](C(=O)N[C@@H](CC(C)C)C(=O)N[C@@H](CCSC)C(=O)N[C@@H](C)C(=O)N[C@@H](CCSC)C(=O)N[C@@H](CC(N)=O)C(=O)N[C@H](C(=O)N[C@H](C(=O)N[C@@H](CO)C(N)=O)[C@@H](C)CC)[C@@H](C)CC)C(C)C)C(C)C)[C@@H](C)CC [Compound Ib-3] (Lauroyl-NESAYDQKNIRRRVYDALNVLMAMNIIS-NH2)	17.9%	49.5%						
Ac-Ala-Arg-Gly-Arg-Gly-Arg-His-Pro-Gly-Lys-Gly-Val-Lys-Ser-Pro-Gly-Glu-Arg-Ser-Arg-Tyr-Glu-Thr-Ser-Leu-Asn-Leu-Thr-Thr-Lys-Arg-Phe-Leu-Glu-Leu-NH2 (Ac-ARGRGRHPGKGVKSPGERSRYETSLNLTTKRFLEL-NH2) [Compound Ic-1]			17%	28%				
Ac-NESAYDQKNIRRRVYDALNVLMAMNIIS-NH2 [Compound Ib-1]		87.6%			13.7%	52.9%	73%	83%
